In ChEMBL document CHEMBL4422644, “Synthesis and evaluation of α-aminoacyl amides as antitubercular agents effective on drug resistant tuberculosis” (Eur J Med Chem, 2019):
≈ marks a conversion by molar mass, not a printed value.

How the values were obtained:
[1] = tested on: Mycobacteroides abscessus; test: Antibacterial activity against Mycobacterium abscessus after 7 days by alamar blue assay; assay type: functional; settings: 168 h
[2] = tested on: Mycolicibacterium fortuitum; test: Antibacterial activity against Mycobacterium fortuitum after 7 days by alamar blue assay; assay type: functional; settings: 168 h
[3] = Selectivity index, ratio of IC50 for CHOK1 cells to MIC for Mycobacterium tuberculosis H37Rv; assay type: toxicity; settings: hamster, read-out: Selectivity Index
[4] = Cytotoxicity against […] B16 cells after 24 hrs by MTT assay; assay type: functional, cell-based; settings: B16, 24 h
[5] = tested on: Mycobacterium tuberculosis; test: Antitubercular activity against Mycobacterium tuberculosis H37Rv after 7 days by alamar blue assay; assay type: functional; settings: 168 h
HepG2 = test: Cytotoxicity against human HepG2 cells after 24 hrs by MTT assay; assay type: functional, cell-based; settings: HepG2, 24 h
Pseudomonas aeruginosa = test: Antibacterial activity against Pseudomonas aeruginosa ATCC 27853 after 24 hrs; assay type: functional; settings: ATCC 27853, 24 h
MCF7 = test: Cytotoxicity against human MCF7 cells after 24 hrs by MTT assay; assay type: functional, cell-based; settings: MCF7, 24 h
CHO-K1 = test: Cytotoxicity against CHOK1 cells after 24 hrs by MTT assay; assay type: cell-based; settings: Cricetulus griseus, CHO-K1, 24 h
[6] = Cytotoxicity against HEK cells after 24 hrs by MTT assay; assay type: cell-based; settings: Homo sapiens, HEK293, 24 h
Klebsiella pneumoniae = test: Antibacterial activity against Klebsiella pneumoniae ATCC BAA-1705 after 24 hrs; assay type: functional; settings: ATCC BAA-1705, 24 h
HeLa = test: Cytotoxicity against human HeLa cells after 24 hrs by MTT assay; assay type: functional, cell-based
A549 = test: Cytotoxicity against human A549 cells after 24 hrs by MTT assay; assay type: functional, cell-based; settings: A549, 24 h
Mycobacteroides chelonae = test: Antibacterial activity against Mycobacterium chelonae after 7 days by alamar blue assay; assay type: functional; settings: 168 h
Acinetobacter baumannii = test: Antibacterial activity against Acinetobacter baumannii ATCC BAA-1605 after 24 hrs; assay type: functional; settings: ATCC BAA-1605, 24 h
Staphylococcus aureus = test: Antibacterial activity against Staphylococcus aureus ATCC 29213 after 24 hrs; assay type: functional; settings: ATCC 29213, 24 h
Escherichia coli = test: Antibacterial activity against Escherichia coli ATCC 25922 after 24 hrs; assay type: functional; settings: ATCC 25922, 24 h
DU-145 = test: Cytotoxicity against human DU145 cells after 24 hrs by MTT assay; assay type: functional, cell-based; settings: DU-145, 24 h

| SMILES | MIC [1] [µM] | MIC [2] [µM] | selectivity ratio [3] | IC50 [4] [µM] | MIC [5] [µM] | IC50 (HepG2) [µM] | MIC (Pseudomonas aeruginosa) [µM] | IC50 (MCF7) [µM] | IC50 (CHO-K1) [µM] | IC50 [6] [µM] | MIC (Klebsiella pneumoniae) [µM] | IC50 (HeLa) [µM] | IC50 (A549) [µM] | MIC (Mycobacteroides chelonae) [µM] | MIC (Acinetobacter baumannii) [µM] | MIC (Staphylococcus aureus) [µM] | MIC (Escherichia coli) [µM] | IC50 (DU-145) [µM] |
| --- | --- | --- | --- | --- | --- | --- | --- | --- | --- | --- | --- | --- | --- | --- | --- | --- | --- | --- |
| Cc1cccc(N(C(=O)c2ccncc2)C(C(=O)NC2CCCCC2)c2ccccc2)c1C (stereo not drawn) | > 50 | > 50 | 13 | 12.2 | 6.25 (≈ 2.76 µg/mL) | 6.99 | > 50 | 6.41 | 81.4 | 38 | > 50 | 13.8 | 12.9 | > 50 | > 50 | > 50 | > 50 | 11.3 |
| Cc1ccc(N(C(=O)c2sc(C)nc2C)C(C(=O)NC2CCCCC2)c2c(F)cc(Br)cc2F)cc1 (stereo not drawn) | > 50 | > 50 | 8.5 | 10.8 | 6.25 (≈ 3.6 µg/mL) | 4.79 | > 50 | 4.08 | 53.3 | 58.3 | > 50 | 22.2 | 11.7 | > 50 | > 50 | > 50 | > 50 | 12.6 |
| Cc1cccc(N(C(=O)c2ccc[nH]2)C(C(=O)NC2CCCCC2)c2ccncc2)c1C (stereo not drawn) | > 50 | > 50 | 22.6 | 16.6 | 6.25 (≈ 2.69 µg/mL) | 8.95 | > 50 | 5.85 | 142 | 108 | > 50 | 13.1 | 15.8 | > 50 | > 50 | > 50 | > 50 | 10.8 |
| Cc1nc(C)c(C(=O)N(c2cccc(C)c2C)C(C(=O)NC2CCCCC2)c2ccc(Cl)cc2)s1 (stereo not drawn) | > 50 | > 50 | 3.5 | 21 | 3.12 (≈ 1.59 µg/mL) | 6.15 | > 50 | 4.12 | 11.4 | 90.5 | > 50 | 13.9 | 9.2 | > 50 | > 50 | > 50 | > 50 | 8.53 |
| Cc1ccc(N(C(=O)c2ccc[nH]2)C(C(=O)NC2CCCCC2)c2cccnc2)cc1 (stereo not drawn) | > 50 | > 50 | 10.7 | 18.4 | 12.5 (≈ 5.21 µg/mL) | 11.5 | > 50 | 5.61 | 135 | 120 | > 50 | 12 | 15.2 | > 50 | > 50 | > 50 | > 50 | 15.5 |
| Cc1cccc(N(C(=O)c2cccs2)C(C(=O)NC2CCCCC2)c2ccccc2)c1C (stereo not drawn) | > 50 | > 50 | 12.2 | 14.3 | 3.12 (≈ 1.39 µg/mL) | 9.63 | > 50 | 16.9 | 38.2 | 22.9 | > 50 | 12.7 | 17.9 | > 50 | > 50 | > 50 | > 50 | 9.14 |
| Cc1ccc(N(C(=O)c2sc(C)nc2C)C(C(=O)NC2CCCCC2)c2ccc[nH]2)cc1 (stereo not drawn) | > 50 | > 50 | 5.3 | 14.5 | 6.25 (≈ 2.82 µg/mL) | 6.13 | > 50 | 4.25 | 33.4 | 15.4 | > 50 | 11.6 | 11.7 | > 50 | > 50 | > 50 | > 50 | 12.7 |
| Cc1ccc(N(C(=O)c2sc(C)nc2C)C(C(=O)NC2CCCCC2)c2ccccc2)cc1 (stereo not drawn) | > 50 | > 50 | 10.9 | 13.9 | 1.56 (≈ 0.72 µg/mL) | 11.8 | > 50 | 3.69 | 17.9 | 37 | > 50 | 10.7 | 1.48 | > 50 | > 50 | > 50 | > 50 | 14 |
| Cc1cccc(N(C(=O)c2ccc[nH]2)C(C(=O)NC2CCCCC2)c2ccccc2)c1C (stereo not drawn) | > 50 | > 50 | 10.7 | 12.3 | 12.5 (≈ 5.37 µg/mL) | 11 | > 50 | 3.58 | 134 | 116 | > 50 | 14.2 | 6.83 | > 50 | > 50 | > 50 | > 50 | 11.2 |
| Cc1ccc(N(C(=O)c2c(C)noc2C)C(C(=O)NC2CCCCC2)c2ccncc2)cc1 (stereo not drawn) | > 50 | > 50 | 26.6 | 28.6 | 6.12 (≈ 2.73 µg/mL) | 8.48 | > 50 | 4.24 | 166 | 71.3 | > 50 | 15.8 | 11 | > 50 | > 50 | > 50 | > 50 | 9.53 |
| Cc1cccc(N(C(=O)c2ccncc2)C(C(=O)NC2CCCCC2)c2cccnc2)c1C (stereo not drawn) | > 50 | > 50 | 11.3 | 19.8 | 3.12 (≈ 1.38 µg/mL) | 12.7 | > 50 | 6.14 | 171 | 86.1 | > 50 | 11.2 | 11.8 | > 50 | > 50 | > 50 | > 50 | 20.2 |
